{"source": "patent US8324186B2", "about": "“4-azetidinyl-1-heteroatom linked-cyclohexane antagonists of CCR2” (Janssen Pharmaceutica N.V., priority 2009, dated 2012)"}
{"target": "T1, CCR2 (Homo sapiens, UniProt P41597)", "T1 construct": "host or cells: THP-1 human monocytic cells", "T1 sequence (P41597 whole entry)": "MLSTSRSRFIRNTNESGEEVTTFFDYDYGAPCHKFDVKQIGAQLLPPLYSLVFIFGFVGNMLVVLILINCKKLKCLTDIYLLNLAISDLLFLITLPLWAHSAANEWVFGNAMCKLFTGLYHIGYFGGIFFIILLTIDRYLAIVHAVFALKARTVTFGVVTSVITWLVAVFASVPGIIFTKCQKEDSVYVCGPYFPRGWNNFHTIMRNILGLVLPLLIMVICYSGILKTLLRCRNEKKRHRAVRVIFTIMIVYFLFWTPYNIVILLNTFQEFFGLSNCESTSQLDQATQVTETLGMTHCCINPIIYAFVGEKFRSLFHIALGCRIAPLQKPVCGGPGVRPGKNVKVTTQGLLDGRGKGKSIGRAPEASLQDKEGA", "experiment": "MCP-1 Receptor Binding Assay in THP-1 Cells (125I-MCP-1 displacement)", "conditions": "0.5 nM 125I labeled MCP-1, 2 hours at 30° C., read-out: CCR2 Binding, Inhibition of MCP-1 Binding IC50", "method": "Compounds of the invention were subjected to various representative biological tests. The results of these tests are intended to illustrate the invention in a non-limiting fashion. MCP-1 Receptor Binding Assay in THP-1 Cells\nHuman monocytic cell line THP-1 cells were obtained from American Type Culture Collection (Manassas, Va., USA). The THP-1 cells were grown in RPMI-1640 (RPMI: Roswell Park Memorial Institute Medium-cell culture growth media) supplemented with 10% fetal bovine serum in a humidified 5% CO2 atmosphere at 37° C. The cell density was maintained […].\nTHP-1 (cells were incubated with 0.5 nM ^125I labeled MCP-1 (Perkin-Elmer Life Sciences, Inc. Boston, Mass.) in the presence of varying concentrations of either unlabeled MCP-1 (R & D Systems, Minneapolis, Minn.) or test compound for 2 hours at 30° C. in a 96 well plate. Cells were then harvested onto a filter plate, dried, and 20 μL of Microscint 20 was added to each well. Plates were counted in a TopCount NXT, Microplate Scintillation & Luminescence Counter (Perkin-Elmer Life Sciences, Inc. Boston, Mass.). Blank values (buffer only) were subtracted from all values and drug treated values were compared to vehicle treated values. 1 μM cold MCP-1 was used for nonspecific binding.\nTable 1 lists IC50 values for inhibition of MCP-1 binding to CCR2 obtained for test compounds of the invention. Where an IC50 value was not obtained for a particular compound, the percent inhibition is provided at a test concentration of 25 μM.", "units": {"IC50": "nM"}}
{"smiles": "N#Cc1ccc(=O)n(C2CCC(N3CC(NC(=O)CNC(=O)c4cccc(C(F)(F)F)c4)C3)CC2)c1", "note": "(stereo not drawn) [Example 10, N-({1-[4-(5-Cyano-2-oxo-2H-pyridin-1-yl)-cyclohexyl]-azetidin-3-ylcarbamoyl}-methyl)-3-trifluoromethyl-benzamide]", "IC50": 1000}
{"smiles": "Cc1ccc(=O)n(C2CCC(N3CC(NC(=O)CNC(=O)c4cccc(C(F)(F)F)c4)C3)CC2)c1", "note": "(stereo not drawn) [Example 11, N-({1-[4-(5-Methyl-2-oxo-2H-pyridin-1-yl)-cyclohexyl]-azetidin-3-ylcarbamoyl}-methyl)-3-trifluoromethyl-benzamide]", "IC50": 280}
{"smiles": "COc1cccnc1OC1CCC(N2CC(NC(=O)CNC(=O)c3cccc(C(F)(F)F)c3)C2)CC1", "note": "(stereo not drawn) [Example 14, N-({1-[4-(3-Methoxy-pyridin-2-yloxy)-cyclohexyl]-azetidin-3-ylcarbamoyl}-methyl)-3-trifluoromethyl-benzamide]", "IC50": 280}
{"smiles": "O=C(CNC(=O)c1cccc(C(F)(F)F)c1)NC1CN(C2CCC(n3ccc(=O)cc3)CC2)C1", "note": "(stereo not drawn) [Example 16, N-({1-[4-(4-Oxo-4H-pyridin-1-yl)-cyclohexyl]-azetidin-3-ylcarbamoyl}-methyl)-3-trifluoromethyl-benzamide]", "IC50": 7100}
{"smiles": "Cc1ccnc(OC2CCC(N3CC(NC(=O)CNC(=O)c4cccc(C(F)(F)F)c4)C3)CC2)c1", "note": "(stereo not drawn) [Example 19, N-({1-[4-(4-Methyl-pyridin-2-yloxy)-cyclohexyl]-azetidin-3-ylcarbamoyl}-methyl)-3-trifluoromethyl-benzamide]", "IC50": 66}
{"smiles": "Cc1ccn(C2CCC(N3CC(NC(=O)CNC(=O)c4cccc(C(F)(F)F)c4)C3)CC2)c(=O)c1", "note": "(stereo not drawn) [Example 20, N-({1-[4-(4-Methyl-2-oxo-2H-pyridin-1-yl)-cyclohexyl]-azetidin-3-ylcarbamoyl}-methyl)-3-trifluoromethyl-benzamide]", "IC50": 110}
{"smiles": "O=C(CNC(=O)c1cccc(C(F)(F)F)c1)NC1CN(C2CCC(Oc3cccnn3)CC2)C1", "note": "(stereo not drawn) [Example 23, N-({1-[4-(Pyridazin-3-yloxy)-cyclohexyl]-azetidin-3-ylcarbamoyl}-methyl)-3-trifluoromethyl-benzamide]", "IC50": 410}
{"smiles": "O=C(CNC(=O)c1cccc(C(F)(F)F)c1)NC1CN(C2CCC(n3cc(I)cn3)CC2)C1", "note": "(stereo not drawn) [Example 28, N-({1-[4-(4-Iodo-pyrazol-1-yl)-cyclohexyl]-azetidin-3-ylcarbamoyl}-methyl)-3-trifluoromethyl-benzamide]", "IC50": 110}
{"smiles": "O=C(CNC(=O)c1cccc(C(F)(F)F)c1)NC1CN(C2CCC(Oc3ccc4c(c3)OCO4)CC2)C1", "note": "(stereo not drawn) [Example 33, N-({1-[4-(Benzo[1,3]dioxol-5-yloxy)-cyclohexyl]-azetidin-3-ylcarbamoyl}-methyl)-3-trifluoromethyl-benzamide]", "IC50": 410}
{"smiles": "O=C(CNC(=O)c1cccc(C(F)(F)F)c1)NC1CN(C2CCC(NC(=O)c3ccc4c(c3)OCO4)CC2)C1", "note": "(stereo not drawn) [Example 35, Benzo[1,3]dioxole-5-carboxylic acid (4-{3-[2-(3-trifluoromethyl-benzoylamino)-acetylamino]-azetidin-1-yl}-cyclohexyl)-amide]", "IC50": 430}
{"smiles": "O=C(CNC(=O)c1cccc(C(F)(F)F)c1)NC1CN(C2CCC(NC(=O)Nc3ccc4c(c3)OCO4)CC2)C1", "note": "(stereo not drawn) [Example 36, N-({1-[4-(3-Benzo[1,3]dioxol-5-yl-ureido)-cyclohexyl]-azetidin-3-ylcarbamoyl}-methyl)-3-trifluoromethyl-benzamide]", "IC50": 1500}
{"smiles": "Cc1ccc(C)n1C1CCC(N2CC(NC(=O)CNC(=O)c3cccc(C(F)(F)F)c3)C2)CC1", "note": "(stereo not drawn) [Example 37, N-({1-[4-(2,5-Dimethyl-pyrrol-1-yl)-cyclohexyl]-azetidin-3-ylcarbamoyl}-methyl)-3-trifluoromethyl-benzamide]", "IC50": 9000}
